Results taken from ChEMBL document CHEMBL1201862, “PubChem BioAssay data set” (2004).
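Five concentrations, 48 hours, 96-well plates. Here, GI50 denotes the concentration required for 50% inhibition of growth.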 Activity calls are given as the source filed them. Cut-off read from the data, not from the text of the source: active = GI50 up to about 1.1 µM and inactive = higher. *1 amine or outer side, *2 acyl side, *3 side chain or, on linkers, in order; H or OH if unused. Where a SMILES comes first, the peptide text is derived from it. Bridges are numbered along the chain shown (N, C = ends). Roman numbers before positions name the chains, in order. [ ]: non-standard residue; d: D form. Actinocin(9to1) = Cc1c2oc3c(C)ccc(C(=O)[*:1])c3nc-2c(C(=O)[*:2])c(N)c1=O; NMeV = CN[CH](C(=O)O)C(C)C; Sar = CNCC(=O)O

Assays:
Test in all cases: DTP human tumour cell line panel, 48 h
Malme-3M = system: Malme-3M
SK-OV-3 = system: SK-OV-3
SK-MEL-5 = system: SK-MEL-5
HL-60 = system: HL-60
MDA-MB-231 = system: MDA-MB-231
786-0 = system: 786-0
SK-MEL-28 = system: SK-MEL-28
CCRF-CEM = system: CCRF-CEM
SF-268 = system: SF-268
HOP-62 = system: HOP-62
HCT-116 = system: HCT-116
T47D = system: T47D
M14 = system: M14
CAKI-1 = system: CAKI-1
HT-29 = system: HT-29
ACHN = system: ACHN
HOP-92 = system: HOP-92
MDA-N = system: MDA-N
PC-3 = system: PC-3
SR = system: SR

| SMILES | GI50 (Malme-3M) | GI50 (SK-OV-3) | GI50 (SK-MEL-5) | GI50 (HL-60) | GI50 (MDA-MB-231) | GI50 (786-0) | GI50 (SK-MEL-28) | GI50 (CCRF-CEM) | GI50 (SF-268) | GI50 (HOP-62) | GI50 (HCT-116) | GI50 (T47D) | GI50 (M14) | GI50 (CAKI-1) | GI50 (HT-29) | GI50 (ACHN) | GI50 (HOP-92) | GI50 (MDA-N) | GI50 (PC-3) | GI50 (SR) |
| --- | --- | --- | --- | --- | --- | --- | --- | --- | --- | --- | --- | --- | --- | --- | --- | --- | --- | --- | --- | --- |
| O=c1ssc(Cl)c1Cl | > 6.11 µM (inactive) | > 10 µM (inactive) | > 10 µM (inactive) | 2.47 µM (inactive) | > 10 µM (inactive) | > 4.7 µM (inactive) | > 10 µM (inactive) | 1.63 µM (inactive) | > 10 µM (inactive) | > 10 µM (inactive) | > 5.98 µM (inactive) | > 10 µM (inactive) | > 10 µM (inactive) | 5.38 µM (inactive) | > 10 µM (inactive) | > 7.26 µM (inactive) | > 10 µM (inactive) | > 10 µM (inactive) | > 10 µM (inactive) | > 10 µM (inactive) |
| O=c1[nH]nc(Cc2ccc(Cl)cc2)n1/N=C/c1ccc([N+](=O)[O-])o1 | 1.46 µM (inactive) | 5.22 µM (inactive) | 2.61 µM (inactive) | 1.87 µM (inactive) | 3.38 µM (inactive) | 2.23 µM (inactive) | 3.03 µM (inactive) | 1.76 µM (inactive) | 2.25 µM (inactive) | 2.77 µM (inactive) | 1.29 µM (inactive) | 21.4 µM (inactive) | 2.17 µM (inactive) | 3.24 µM (inactive) | 2.21 µM (inactive) | 2.12 µM (inactive) | 4.57 µM (inactive) | 1.65 µM (inactive) | 3.08 µM (inactive) | 2.17 µM (inactive) |
| O=C1c2ccccc2-c2c1c1ccccc1c(=O)n2-c1cccnc1 | > 95.3 µM (inactive) | 42.6 µM (inactive) | 73.5 µM (inactive) | > 10 µM (inactive) | > 59.7 µM (inactive) | 9.91 µM (inactive) | > 100 µM (inactive) | > 10 µM (inactive) | 29.5 µM (inactive) | 12.1 µM (inactive) | 27.3 µM (inactive) | > 64.4 µM (inactive) | > 100 µM (inactive) | 35.3 µM (inactive) | > 63.7 µM (inactive) | 23.2 µM (inactive) | 8.17 µM (inactive) | > 100 µM (inactive) | > 54.3 µM (inactive) | 5.53 µM (inactive) |
| CC(=O)OCC1OC(n2c(C)c(C(C)=O)c(-c3cccc4ccccc34)c(C#N)c2=S)C(OC(C)=O)C(OC(C)=O)C1OC(C)=O (stereo not given) | > 100 µM (inactive) | > 100 µM (inactive) | 28.7 µM (inactive) | > 100 µM (inactive) | > 100 µM (inactive) | > 100 µM (inactive) | > 100 µM (inactive) | > 100 µM (inactive) | > 100 µM (inactive) | > 100 µM (inactive) | > 100 µM (inactive) | > 100 µM (inactive) | > 100 µM (inactive) | > 100 µM (inactive) | > 100 µM (inactive) | > 100 µM (inactive) | 17.5 µM (inactive) | > 100 µM (inactive) | > 100 µM (inactive) | > 100 µM (inactive) |
| O=c1ssc2ncccc12 | 19.8 µM (inactive) | > 100 µM (inactive) | 13.2 µM (inactive) | 42.4 µM (inactive) | 11.9 µM (inactive) | 16.9 µM (inactive) | 24.8 µM (inactive) | 31.5 µM (inactive) | 22.1 µM (inactive) | 20.7 µM (inactive) | 15.2 µM (inactive) | 46 µM (inactive) | 17.9 µM (inactive) | 56.6 µM (inactive) | 23.6 µM (inactive) | 17.4 µM (inactive) | > 100 µM (inactive) | 19 µM (inactive) | 44 µM (inactive) | 48.2 µM (inactive) |
| Cc1c2oc3c(C)ccc(C(=O)NC4C(=O)NC(C(C)C)C(=O)N5CCCC5C(=O)N(C)CC(=O)N(C)C(C(C)C)C(=O)OC4C)c3nc-2c(C(=O)NC2C(=O)NC(C(C)C)C(=O)N3CCCC3C(=O)N(C)CC(=O)N(C)C(C(C)C)C(=O)OC2C)c(N)c1=O (stereo not given) (I: TVP[Sar][NMeV] / II: TVP[Sar][NMeV]; ester I:1-I:C, II:1-II:C; linker I:N-II:N via Actinocin(9to1); configuration not given here) | 0.000273 µM (active) | 0.0017 µM (active) | 0.000351 µM (active) | 0.00017 µM (active) | 0.00494 µM (active) | 0.000143 µM (active) | 0.000764 µM (active) | < 0.0001 µM (active) | < 0.0001 µM (active) | 0.000486 µM (active) | < 0.0001 µM (active) | 0.000507 µM (active) | 0.00256 µM (active) | 0.00224 µM (active) | < 0.0001 µM (active) | 0.000213 µM (active) | 0.00177 µM (active) | 0.000197 µM (active) | 0.000428 µM (active) | < 0.0001 µM (active) |
| CC(C)=CCC[C@@H](C)[C@H]1CC[C@@]2(C)[C@@H]3CC[C@H]4C(C)(C)[C@@H](O)CC[C@@]45C[C@@]35CC[C@]12C [CYCLOARTENOL] | > 100 µM (inactive) | 53.5 µM (inactive) | > 44.4 µM (inactive) | 33.7 µM (inactive) | > 44.9 µM (inactive) | 43.8 µM (inactive) | 39.4 µM (inactive) | 23 µM (inactive) | 27.7 µM (inactive) | 24.9 µM (inactive) | 23.5 µM (inactive) | 51.4 µM (inactive) | 41 µM (inactive) | 59.6 µM (inactive) | > 100 µM (inactive) | 31.5 µM (inactive) | 17.7 µM (inactive) | > 72.9 µM (inactive) | > 71.8 µM (inactive) | 24.3 µM (inactive) |
| Oc1ccc(Cl)cc1Sc1cc(Cl)ccc1O [FENTICLOR] | 6.67 µM (inactive) | 20.5 µM (inactive) | 3.83 µM (inactive) | 7.87 µM (inactive) | 15 µM (inactive) | 18.1 µM (inactive) | 11.8 µM (inactive) | 5.92 µM (inactive) | 10.3 µM (inactive) | 16.7 µM (inactive) | 7.11 µM (inactive) | 5.85 µM (inactive) | 12.9 µM (inactive) | 17.9 µM (inactive) | 18 µM (inactive) | 8.65 µM (inactive) | 3.15 µM (inactive) | 7.24 µM (inactive) | 15.3 µM (inactive) | 17.1 µM (inactive) |
| O=C1c2ccccc2-n2c1nc1ccccc1c2=O [TRYPTANTHRIN] | 13.4 µM (inactive) | > 100 µM (inactive) | 13.1 µM (inactive) | 3.71 µM (inactive) | 16.7 µM (inactive) | 28.2 µM (inactive) | 15.8 µM (inactive) | 9.08 µM (inactive) | 19.9 µM (inactive) | 12.1 µM (inactive) | 5.86 µM (inactive) | 8.87 µM (inactive) | 5.65 µM (inactive) | 12.3 µM (inactive) | 14.8 µM (inactive) | 2 µM (inactive) | 44.5 µM (inactive) | 18.2 µM (inactive) | 0.649 µM (active) | 8.47 µM (inactive) |
